According to ChEMBL document CHEMBL5226286, “The application of isatin-based multicomponent-reactions in the quest for new bioactive and druglike molecules” (Eur J Med Chem, 2021):
≈ marks a conversion by molar mass, not a printed value. Calls of active or inactive are those of the source. The calls are words filed in the database; no cut-off is given here.

Columns and labels:
[1] = test system: Mycobacterium tuberculosis; experiment: Antimycobacterial activity against active stage of Mycobacterium tuberculosis H37Ra ATCC 25177 assessed as minimum inhibitory concentration by XTT assay; format: functional
[2] = test system: Mycobacterium tuberculosis; experiment: Antimycobacterial activity against dormant stage of Mycobacterium tuberculosis H37Ra ATCC 25177 assessed as minimum inhibitory concentration by XTT assay; format: functional
Staphylococcus aureus [3] = experiment: Antibacterial activity against Staphylococcus aureus by disc diffusion method; format: functional
Bacillus subtilis [4] = experiment: Antibacterial activity against Bacillus subtilis by disc diffusion method; format: functional
Escherichia coli [5] = experiment: Antibacterial activity against Escherichia coli by disc diffusion method; format: functional
Pseudomonas aeruginosa [6] = experiment: Antibacterial activity against Pseudomonas aeruginosa by disc diffusion method; format: functional
A549 [7] = experiment: Antiproliferative activity against human A549 cells; format: functional, cell-based
[8] = Antioxidant activity assessed as DPPH radical scavenging activity at 1 mg/ml relative to control; format: functional
MDA-MB-231 = experiment: cells; format: functional, cell-based; conditions: Homo sapiens
Description: Antiproliferative activity against human MDA-MB-231 cells

HeLa [9] = experiment: Antiproliferative activity against human HeLa cells; format: functional, cell-based
MDA-MB-435 = experiment: Antiproliferative activity against human MDA-MB-435 cells; format: functional, cell-based
A549 [10] = experiment: Cytotoxicity against human A549 cells incubated for 48 hrs by MTT assay; format: functional, cell-based; conditions: A549, 48 h
HeLa [11] = experiment: Cytotoxicity against human HeLa cells incubated for 48 hrs by MTT assay; format: functional, cell-based
MCF7 [12] = experiment: Cytotoxicity against human MCF7 cells incubated for 48 hrs by MTT assay; format: functional, cell-based; conditions: MCF7, 48 h
DU-145 = experiment: Cytotoxicity against human DU-145 cells incubated for 48 hrs by MTT assay; format: functional, cell-based; conditions: DU-145, 48 h
Bacillus subtilis [13] = experiment: Antibacterial activity against Bacillus subtilis ATCC 465; format: functional
Bacillus pumilus = experiment: Antibacterial activity against Bacillus pumilus PTCC 1114; format: functional
Micrococcus luteus = experiment: Antibacterial activity against Micrococcus luteus PTCC 1110; format: functional
Streptococcus mutans = experiment: Antibacterial activity against Streptococcus mutans PTCC 1601; format: functional
[14] = test system: Staphylococcus epidermidis; experiment: Antibacterial activity against Staphylococcus epidermidis ATCC 12228; format: functional
Staphylococcus aureus [15] = experiment: Antibacterial activity against Staphylococcus aureus ATCC 25923; format: functional
Escherichia coli [16] = experiment: Antimicrobial activity against Escherichia coli ATCC 25922; format: functional
Enterococcus faecalis = experiment: Antibacterial activity against Enterococcus faecalis ATCC 29737; format: functional
Streptococcus pneumoniae = experiment: Antibacterial activity against Streptococcus pneumoniae incubated for 24 to 48 hrs by agar diffusion well method; format: functional; conditions: time 24-48 hrs
Bacillus subtilis [17] = experiment: Antibacterial activity against Bacillus subtilis incubated for 24 to 48 hrs by agar diffusion well method; format: functional; conditions: time 24-48 hrs
Pseudomonas aeruginosa [18] = experiment: Antibacterial activity against Pseudomonas aeruginosa incubated for 24 to 48 hrs by agar diffusion well method; format: functional; conditions: time 24-48 hrs
Escherichia coli [19] = experiment: Antibacterial activity against Escherichia coli incubated for 24 to 48 hrs by agar diffusion well method; format: functional; conditions: time 24-48 hrs
Aspergillus fumigatus = experiment: Antifungal activity against Aspergillus fumigatus RCMB 02568; format: functional
[20] = test system: Syncephalastrum racemosum; experiment: Antifungal activity against Syncephalastrum racemosum RCMB 05922; format: functional
Geotrichum candidum = experiment: Antifungal activity against Geotrichum candidum RCMB 05097; format: functional
Candida albicans = experiment: Antifungal activity against Candida albicans RCMB 05036; format: functional
Escherichia coli [21] = experiment: Antibacterial activity against Escherichia coli NCIM 2688 measured after 8 hrs; format: functional
Pseudomonas aeruginosa [22] = experiment: Antibacterial activity against Pseudomonas aeruginosa NCIM […] measured after 8 hrs; format: functional
Bacillus subtilis [23] = experiment: Antibacterial activity against Bacillus subtilis NCIM 2079 measured after 12 hrs; format: functional
Staphylococcus aureus [24] = experiment: Antibacterial activity against Staphylococcus aureus NCIM 2010 measured after 12 hrs; format: functional
MCF7 [25] = experiment: Cytotoxicity against human MCF7 cells; format: functional, cell-based

Cc1cc2c(c(=O)o1)C1(C(=O)N(Cc3cn(Cc4ccc(Cl)cc4)nn3)c3ccc(Cl)cc31)C(C#N)=C(N)O2 (stereo not given)
MIC [1]: 5.39 mg/L (≈ 9.6 µM)
MIC [2]: 4.81 mg/L (≈ 8.57 µM)

COc1ccccc1N1C(=O)C2(C3=C(Nc4ccccc42)C(=O)CC(C)(C)C3)C2=C1CC(C)(C)CC2=O (stereo not given)
MIC (Staphylococcus aureus [3]): 75 mg/L (≈ 151 µM)
MIC (Bacillus subtilis [4]): 75 mg/L (≈ 151 µM)
MIC (Escherichia coli [5]): 175 mg/L (≈ 352 µM)
MIC (Pseudomonas aeruginosa [6]): 100 mg/L (≈ 201 µM)

COc1ccc2[nH]cc(C(=O)C3(C#N)C(c4ncc[nH]4)CN(C)C34C(=O)Nc3ccccc34)c2c1 (stereo not given)
IC50 (A549 [7]): 66.3 µM

N[C@@H](CCC(=O)N[C@@H](CS)C(=O)NCC(=O)O)C(=O)O
Activity [8]: 92%

CO[C@H]1/C=C/O[C@@]2(C)Oc3c(C)c(O)c4c(O)c(c(/C=N/N5CCN(C)CC5)c(O)c4c3C2=O)NC(=O)/C(C)=C\C=C\[C@H](C)[C@H](O)[C@@H](C)[C@@H](O)[C@@H](C)[C@H](OC(C)=O)[C@@H]1C [RIFAMPIN]
MIC [1]: 0.51 mg/L (≈ 0.62 µM)
MIC [2]: 0.75 mg/L (≈ 0.911 µM)

Cc1cc2c(c(=O)o1)C1(C(=O)N(Cc3cn(Cc4ccc(Cl)cc4)nn3)c3ccccc31)C(C#N)=C(N)O2 (stereo not given)
MIC [1]: 5.21 mg/L (≈ 9.89 µM)
MIC [2]: 4.39 mg/L (≈ 8.33 µM)

CCC(C)Cn1cc(CN2C(=O)C3(C(C#N)=C(N)Oc4c3ccc3[nH]c5ccccc5c43)c3ccccc32)nn1 (stereo not given)
IC50 (MDA-MB-231): 3.8 µM
IC50 (HeLa [9]): 14.9 µM

N#CC1=C(N)OC2=C(C(=O)c3ccccc32)C12C(=O)Nc1ccc(Br)cc12 (stereo not given)
IC50 (MDA-MB-435): 1.8 µM

N#CC1=C(N)Oc2c(ccc3[nH]c4ccccc4c23)C12C(=O)N(Cc1cn(Cc3ccc(C(F)(F)F)cc3)nn1)c1ccccc12 (stereo not given)
IC50 (MDA-MB-231): 61.9 µM
IC50 (HeLa [9]): 3.5 µM

COc1cc([C@@H]2c3cc4c(cc3[C@@H](O[C@@H]3O[C@@H]5CO[C@@H](C)O[C@H]5[C@H](O)[C@H]3O)[C@H]3COC(=O)[C@H]23)OCO4)cc(OC)c1O [ETOPOSIDE]
IC50 (A549 [10]): 2.2 µM
IC50 (HeLa [11]): 1 µM
IC50 (MCF7 [12]): 1.6 µM
IC50 (DU-145): 2.1 µM

N#CC1=C(N)OC2=C(C(=O)c3ccccc32)C12C(=O)Nc1ccc(Cl)cc12 (stereo not given)
IC50 (MDA-MB-435): 2.1 µM

CC(=O)O[C@H]1C(=O)[C@@]2(C)[C@H]([C@H](OC(=O)c3ccccc3)[C@]3(O)C[C@H](OC(=O)[C@H](O)[C@@H](NC(=O)c4ccccc4)c4ccccc4)C(C)=C1C3(C)C)[C@]1(OC(C)=O)CO[C@@H]1C[C@@H]2O [PACLITAXEL]
IC50 (MDA-MB-231): 0.1 µM
IC50 (HeLa [9]): 0.006 µM

O=C1c2c(Cl)cccc2NC2(C(=O)Nc3ccccc32)N1Nc1ccccc1 (stereo not given)
MIC (Bacillus subtilis [13]): 8 mg/L (≈ 20.5 µM)
MIC (Bacillus pumilus): 4 mg/L (≈ 10.2 µM)
MIC (Micrococcus luteus): 8 mg/L (≈ 20.5 µM)
MIC (Streptococcus mutans): 8 mg/L (≈ 20.5 µM)
MIC [14]: 4 mg/L (≈ 10.2 µM)
MIC (Staphylococcus aureus [15]): 2 mg/L (≈ 5.12 µM)
MIC (Escherichia coli [16]): 32 mg/L (≈ 81.9 µM)
MIC (Enterococcus faecalis): 128 mg/L (≈ 328 µM)

CCOC(=O)N1C/C(=C\c2ccc(F)cc2F)C(=O)[C@@]2(C1)[C@H](c1ccc(F)cc1F)[C@H]1CCCN1[C@]21C(=O)Nc2ccccc21
MIC (Streptococcus pneumoniae): 0.015 mg/L (≈ 0.0242 µM)
MIC (Bacillus subtilis [17]): 0.015 mg/L (≈ 0.0242 µM)
MIC (Pseudomonas aeruginosa [18]): inactive
MIC (Escherichia coli [19]): 1.95 mg/L (≈ 3.15 µM)
MIC (Aspergillus fumigatus): 7.81 mg/L (≈ 12.6 µM)
MIC [20]: 1.95 mg/L (≈ 3.15 µM)
MIC (Geotrichum candidum): 0.03 mg/L (≈ 0.0484 µM)
MIC (Candida albicans): inactive

CC1(C)CC(=O)C2=C(C1)OC(N)=C(C#N)C21C(=O)N(Cc2cn(Cc3ccc(Cl)cc3)nn2)c2ccc(Br)cc21 (stereo not given)
MIC [1]: > 50 mg/L
MIC [2]: 10.6 mg/L (≈ 17.1 µM)
MIC90 (Escherichia coli [21]): 2.86 mg/L (≈ 4.61 µM)
MIC90 (Pseudomonas aeruginosa [22]): 1.57 mg/L (≈ 2.53 µM)
MIC90 (Bacillus subtilis [23]): 3.18 mg/L (≈ 5.13 µM)
MIC90 (Staphylococcus aureus [24]): 1.09 mg/L (≈ 1.76 µM)

CCOC(=O)N1C/C(=C\c2ccc(OC)cc2)C(=O)[C@@]2(C1)[C@H](c1ccc(OC)cc1)[C@H]1CCCN1[C@]21C(=O)Nc2ccccc21
MIC (Streptococcus pneumoniae): 0.98 mg/L (≈ 1.61 µM)
MIC (Bacillus subtilis [17]): 0.015 mg/L (≈ 0.0247 µM)
MIC (Pseudomonas aeruginosa [18]): inactive
MIC (Escherichia coli [19]): 15.6 mg/L (≈ 25.7 µM)
MIC (Aspergillus fumigatus): 1.95 mg/L (≈ 3.21 µM)
MIC [20]: 0.98 mg/L (≈ 1.61 µM)
MIC (Geotrichum candidum): 0.49 mg/L (≈ 0.806 µM)
MIC (Candida albicans): inactive

Cc1ccc2c(c1)C1(Nc3ccccc3NC3=C1C(=O)OC3)C(=O)N2 (stereo not given)
IC50 (A549 [10]): 1.5 µM
IC50 (HeLa [11]): 9.6 µM
IC50 (MCF7 [12]): 2.1 µM
IC50 (DU-145): 1.3 µM

Cc1ccc2c(c1)C1(C(=O)N2)N2CSCC2C(c2ncc[nH]2)C1(C#N)C(=O)c1c[nH]c2ccccc12 (stereo not given)
IC50 (A549 [7]): 66.3 µM

CC1(C)CC(=O)C2=C(C1)N(c1ccccc1S)C(=O)C21C2=C(Nc3ccccc31)C(=O)CC(C)(C)C2 (stereo not given)
MIC (Staphylococcus aureus [3]): 225 mg/L (≈ 451 µM)
MIC (Bacillus subtilis [4]): 2.5 mg/L (≈ 5.01 µM)
MIC (Escherichia coli [5]): 188 mg/L (≈ 376 µM)
MIC (Pseudomonas aeruginosa [6]): 150 mg/L (≈ 301 µM)

Cc1cc2c(c(=O)o1)C1(C(=O)N(Cc3cn(Cc4ccc(Cl)cc4)nn3)c3ccc(Br)cc31)C(C#N)=C(N)O2 (stereo not given)
MIC [1]: 6.63 mg/L (≈ 10.9 µM)
MIC [2]: 6.8 mg/L (≈ 11.2 µM)
MIC90 (Escherichia coli [21]): 2.75 mg/L (≈ 4.54 µM)
MIC90 (Pseudomonas aeruginosa [22]): 2.33 mg/L (≈ 3.85 µM)
MIC90 (Bacillus subtilis [23]): 5.27 mg/L (≈ 8.7 µM)
MIC90 (Staphylococcus aureus [24]): 3.86 mg/L (≈ 6.37 µM)

CCOC(=O)C1=C(C(=O)OCC)C2(NC1(C(=O)OCC)C(=O)OCC)C(=O)N(C)c1ccc(C)cc12 (stereo not given)
IC50 (MCF7 [25]): 20.8 µM
